{"source": "patent US11731964B2", "about": "“Benzamide antibacterial agents” (Purdue Research Foundation, priority 2018, dated 2023)", "key": {"S. aureus ATCC 25923": {"tested_on": "S. aureus ATCC 25923", "assay": "MIC, broth microdilution", "type": "cell-based", "conditions": "Staphylococcus aureus, ATCC25923; S. aureus ATCC 25923; read-out: MIC", "method_in_brief": "(§1)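 MIC = lowest concentration with no visual growth after ≥20 h at 37° C in 96-well broth culture (CA-MHB, BHI for E. faecium, or TSB by strain). MBC: 4 μL from no-growth wells spotted on TSA, incubated ≥18 h at 37° C.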"}, "[1]": {"tested_on": "L. monocytogenes ATCC 19115", "assay": "MIC, broth microdilution", "type": "cell-based", "conditions": "Listeria monocytogenes, ATCC19115; L. monocytogenes ATCC 19115; read-out: MIC", "method_in_brief": "as §1"}, "MRSA ATCC 33592": {"tested_on": "MRSA ATCC 33592", "assay": "MIC, broth microdilution", "type": "cell-based", "conditions": "Staphylococcus aureus; MRSA ATCC 33592; read-out: MIC", "method_in_brief": "as §1"}, "[2]": {"tested_on": "VRE (E. faecalis) ATCC 51575", "assay": "MIC, broth microdilution", "type": "cell-based", "conditions": "VRE (E. faecalis) ATCC 51575; read-out: MIC", "method_in_brief": "as §1"}, "E. faecalis ATCC 29212": {"tested_on": "E. faecalis ATCC 29212", "assay": "MIC, broth microdilution", "type": "cell-based", "conditions": "Enterococcus faecalis, ATCC29212; E. faecalis ATCC 29212; read-out: MIC", "method_in_brief": "as §1"}, "S. aureus": {"tested_on": "S. aureus", "assay": "Screening of compounds for growth inhibition of S. aureus at 16 μg/mL (OD600)", "type": "cell-based", "conditions": "compound at 16 μg/mL, 24 hours, compared to DMSO control", "experimental": "Library compounds and analogs of F6 were dissolved in DMSO at 10 mg/mL. S. aureus was cultured in Mueller Hinton Broth to early exponential phase at which point culture aliquots were incubated with compounds at 16 μg/mL or DMSO in duplicates. The culture was continued at 37° C. for 24 hours. Aliquots (100 μL) of the cultures were dispensed into clear 96 well microtiter plates and OD600 was recorded. Percent normalized OD600 was obtained by using the equation [formula] wherein for a given compound, X is the OD600 of culture with the compound, Xo is that of media only and XT is the OD600 of the DMSO control."}, "[3]": {"tested_on": "Acinetobacter baumannii ATCC 19606", "assay": "MIC against Gram-negative pathogens", "type": "cell-based", "experimental": "(§2) Bacteria were cultured in cation-adjusted Mueller Hinton Broth (for strains in Tables 1 and 4) or Brain Heart Infusion broth (for Enterococcus faecium) or Tryptic Soy Broth (all other bacteria) in a 96-well plate at 37° C. for at least 20 hours. The MIC was classified as the lowest concentration where no visual growth of bacteria was observed. The minimum bactericidal concentration (MBC) was tested by spotting 4 μL from wells with no growth onto Tryptic Soy Agar (TSA) plates. Plates were incubated at 37° C. for at least 18 hours before recording the MBC."}, "[4]": {"tested_on": "Pseudomonas aeruginosa ATCC 15442", "assay": "MIC against Gram-negative pathogens", "type": "cell-based", "experimental": "as §2"}, "[5]": {"tested_on": "Klebsiella pneumoniae BAA-1706", "assay": "MIC against Gram-negative pathogens", "type": "cell-based", "experimental": "as §2"}, "Escherichia coli BW25113": {"tested_on": "Escherichia coli BW25113", "assay": "MIC against Gram-negative pathogens", "type": "cell-based", "conditions": "Escherichia coli BW25113 (wild-type); read-out: MIC", "experimental": "as §2"}, "MRSA NRS119": {"tested_on": "MRSA NRS119", "assay": "MIC and MBC", "type": "cell-based, Staphylococcus aureus", "conditions": "Staphylococcus aureus, MRSA NRS119", "experimental": "as §2"}, "[6]": {"tested_on": "Escherichia coli JW5503-1 (ΔtolC)", "assay": "MIC against Gram-negative pathogens (efflux pump knockout)", "type": "cell-based", "experimental": "as §2"}, "MRSA USA300": {"tested_on": "MRSA USA300", "assay": "Time-kill analysis", "type": "cell-based, Staphylococcus aureus", "experimental": "The time-kill analysis was performed as previously described^29. […] Aliquots (100 μL) were collected from each treatment after 0, 2, 4, 8, 12, and 24 hours of incubation at 37° C. and subsequently serially diluted in phosphate-buffered saline (PBS). Bacteria were then transferred to TSA plates and incubated at 37° C. for 18-20 hours before viable CFU/mL was determined."}, "MRSA NRS385 (USA500)": {"tested_on": "MRSA NRS385 (USA500)", "assay": "MIC and MBC", "type": "cell-based", "conditions": "Staphylococcus aureus, MRSA NRS385 (USA500)", "experimental": "as §2"}, "MRSA NRS387 (USA800)": {"tested_on": "MRSA NRS387 (USA800)", "assay": "MIC and MBC", "type": "cell-based", "conditions": "Staphylococcus aureus, MRSA NRS387 (USA800)", "experimental": "as §2"}, "MRSA NRS384 (USA300)": {"tested_on": "MRSA NRS384 (USA300)", "assay": "MIC and MBC", "type": "cell-based", "conditions": "Staphylococcus aureus, MRSA NRS384 (USA300)", "experimental": "as §2"}, "E. faecium ATCC": {"tested_on": "E. faecium ATCC", "assay": "MIC and MBC", "type": "cell-based", "conditions": "Enterococcus faecium, E. faecium ATCC", "experimental": "as §2"}, "MRSA NRS386 (USA700)": {"tested_on": "MRSA NRS386 (USA700)", "assay": "MIC and MBC", "type": "cell-based", "conditions": "Staphylococcus aureus, MRSA NRS386 (USA700)", "experimental": "as §2"}, "MRSA NRS123 (USA400)": {"tested_on": "MRSA NRS123 (USA400)", "assay": "MIC and MBC", "type": "cell-based", "conditions": "Staphylococcus aureus, MRSA NRS123 (USA400)", "experimental": "as §2"}}, "note": "Like-named read-outs stand apart in the source and are kept apart here.", "data": [{"molecule": "CC1CC(C)CN(S(=O)(=O)c2ccc(C(=O)Nc3nnc(-c4cccs4)o3)cc2)C1", "note": "(stereo not drawn) [Compound F6]", "values": [{"measurement": "MIC", "setting": "S. aureus ATCC 25923", "result": 2, "unit": "µg/mL"}, {"measurement": "MIC", "setting": "[1]", "result": 4, "unit": "µg/mL"}, {"measurement": "MIC", "setting": "MRSA ATCC 33592", "result": 2, "unit": "µg/mL"}, {"measurement": "MIC", "setting": "[2]", "result": 4, "unit": "µg/mL"}, {"measurement": "MIC", "setting": "E. faecalis ATCC 29212", "result": 4, "unit": "µg/mL"}, {"measurement": "inhibition of growth of S. aureus", "setting": "S. aureus", "result": "significantly inhibited the growth"}, {"measurement": "MIC", "setting": "[3]", "result": "not active"}, {"measurement": "MIC", "setting": "[3]; ATCC19606, read-out: MIC", "result": 128, "unit": "µg/mL"}, {"measurement": "MIC", "setting": "[4]", "result": "not active"}, {"measurement": "MIC", "setting": "[4]; ATCC15442, read-out: MIC", "result": "> 128", "unit": "µg/mL"}, {"measurement": "MIC", "setting": "[5]", "result": "not active"}, {"measurement": "MIC", "setting": "[5]; BAA1706, read-out: MIC", "result": "> 128", "unit": "µg/mL"}, {"measurement": "MIC", "setting": "Escherichia coli BW25113", "result": "> 128", "unit": "µg/mL"}, {"measurement": "MBC", "setting": "MRSA NRS119; read-out: MBC", "result": "> 128", "unit": "µg/mL"}, {"measurement": "MIC", "setting": "MRSA NRS119; read-out: MIC", "result": 2, "unit": "µg/mL"}, {"measurement": "MIC", "setting": "[6]", "result": 2, "unit": "µg/mL"}, {"measurement": "reduction in MRSA USA300 (time-kill)", "setting": "MRSA USA300; 3×MIC, after a 24-hour incubation period", "result": 2.42, "unit": "log10"}, {"measurement": "in vitro effect against MRSA USA300", "setting": "MRSA USA300; time-kill analysis and MBC", "result": "bacteriostatic"}, {"measurement": "MBC", "setting": "MRSA NRS385 (USA500); read-out: MBC", "result": "> 128", "unit": "µg/mL"}, {"measurement": "MIC", "setting": "MRSA NRS385 (USA500); read-out: MIC", "result": 2, "unit": "µg/mL"}, {"measurement": "MBC", "setting": "MRSA NRS387 (USA800); read-out: MBC", "result": "> 128", "unit": "µg/mL"}, {"measurement": "MIC", "setting": "MRSA NRS387 (USA800); read-out: MIC", "result": 2, "unit": "µg/mL"}, {"measurement": "MBC", "setting": "MRSA NRS384 (USA300); read-out: MBC", "result": "> 128", "unit": "µg/mL"}, {"measurement": "MIC", "setting": "MRSA NRS384 (USA300); read-out: MIC", "result": 2, "unit": "µg/mL"}, {"measurement": "MBC", "setting": "E. faecium ATCC; read-out: MBC", "result": 128, "unit": "µg/mL"}, {"measurement": "MIC", "setting": "E. faecium ATCC; read-out: MIC", "result": 2, "unit": "µg/mL"}, {"measurement": "MBC", "setting": "MRSA NRS386 (USA700); read-out: MBC", "result": "> 128", "unit": "µg/mL"}, {"measurement": "MIC", "setting": "MRSA NRS386 (USA700); read-out: MIC", "result": 2, "unit": "µg/mL"}, {"measurement": "MBC", "setting": "MRSA NRS123 (USA400); read-out: MBC", "result": "> 128", "unit": "µg/mL"}, {"measurement": "MIC", "setting": "MRSA NRS123 (USA400); read-out: MIC", "result": 2, "unit": "µg/mL"}]}]}
